The record followed here is patent publication US20080045535A1, “Prokineticin 2 receptor antagonists” (priority 2005, published 2008).

Where “and” joins values, the source holds several entries; their conditions need not be identical. Equal values may be shown once.

A word on the IC50: it is the concentration that gives 50% inhibition.

In the assay the target is T1, HEK 293 GPR73 (prokineticin 1 receptor) expressing cells (Homo sapiens, UniProt Q8TCW9).
T1 construct: expressed in transfected cells; host or cells: HEK 293
T1 sequence (Q8TCW9 whole entry): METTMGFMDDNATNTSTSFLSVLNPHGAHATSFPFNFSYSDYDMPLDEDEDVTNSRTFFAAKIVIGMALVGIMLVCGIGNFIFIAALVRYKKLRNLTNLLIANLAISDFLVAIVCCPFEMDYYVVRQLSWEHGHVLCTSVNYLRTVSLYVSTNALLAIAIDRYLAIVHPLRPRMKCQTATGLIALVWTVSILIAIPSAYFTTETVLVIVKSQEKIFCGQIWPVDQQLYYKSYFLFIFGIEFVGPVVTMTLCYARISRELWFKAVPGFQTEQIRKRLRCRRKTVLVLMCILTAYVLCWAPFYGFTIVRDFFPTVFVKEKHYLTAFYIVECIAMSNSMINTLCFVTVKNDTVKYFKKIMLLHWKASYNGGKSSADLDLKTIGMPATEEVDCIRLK
Description: PK1 functional assay: screening for PK1 antagonists on the FLIPR (calcium fluorescence). It counts as cell-based. To be noted: HEK 293 GPR73 cells; for inhibition at 10 µM: HEK293, compound at 10 μM, read-out: Ca^2+ Mobilization % Inh @10 μM; for inhibition at 10 µM / Ca^2+ Mobilization % Inh @10 μM: multiple values = repeat tests; for IC50: PK1 ligand at EC50, multiple values = repeat tests, read-out: Ca^2+ Mobilization IC50; for Ca^2+ Mobilization % Inh @10 μM: compound at 10 μM. As for the experimental part: At a time of 24 h prior to running the assay, in cell culture media (DMEM containing high Glucose and L-glutamine, 10% FBS, 1% Pen/Streptomycin, 1% Sodium Pyruvate, 20 mM HEPES, Zeocin 200 mg/L), 100 μL of 1.3*10^6/ml HEK 293 GPR73 (prokineticin 1 receptor) expressing cells were plated in a 96 well poly-d-lysine coated plate (Costar), and incubated at 37 C and 5% CO2. On the day in which the assay was run, the media was removed and 200 μL of 5× Calcium Plus Dye (Molecular Devices) which was previously resuspended with 200 mL of assay buffer [HBSS w/Ca^2+ and Mg^2+ w/o phenol red, 20 mM HEPES, 0.1% BSA, 10 mL probenecid (710 mg probenecid in 5 mL of 1N NaOH, to which was then added 5 mL HBSS containing 20 mM HEPES)] was added to each well of the 96-well plate. The plate was incubated at 37 C and 5% CO2 for 30 min in dark. The plate was removed and allowed to reach RT for 15 min in the dark. The assay was then run on the FLIPR. […] Baseline is described as the amount of relative fluorescence read when buffer alone is added to cells. Baseline was subtracted from all wells. Percent of control was calculated as follows:
(Baseline subtracted well value is divided by baseline subtracted max value)*100.
Percent inhibition is 100 minus the percent of control value.
IC50 values were calculated using GraphPad Prism.
Table 2 includes data generated from the PK1 functional assay described in Example 2.

Regarding `COc1ccc(Cn2c(N[C@@H]3CCCC[C@@H]3NC(=N)N)nc(=O)n(Cc3ccc(Cl)c(Cl)c3)c2=O)cc1` (racemic) [Cpd 42], the inhibition at 10 µM came out at 92% and the IC50 was determined as 281 nM.

For the compound `NC(N)=NCCNc1nc(=O)n(Cc2ccccc2)c(=O)n1Cc1ccc(F)cc1` [Cpd 1], the inhibition at 10 µM came out at 30% and the IC50 is above 10000 nM.

As to `COc1ccc(Cn2c(NCCNC(=N)N)nc(=O)n(Cc3ccccc3)c2=O)cc1` [Cpd 2], the inhibition at 10 µM was found to be 92%; the IC50 is 125 nM and 363 nM and 336 nM and 927 nM. For the same compound, under “10 µM”, the “Ca^2+ Mobilization % Inh @10 μM” value is 85% and 74% and 87%.

Consider `COC(=O)c1ccc(Cn2c(NCCNC(=N)N)nc(=O)n(Cc3ccccc3)c2=O)cc1` [Cpd 3], for which the IC50 was 4960 nM and the “Ca^2+ Mobilization % Inh @10 μM” value was 52%.

For the compound `COc1ccc(Cn2c(NCCNC(=N)N)nc(=O)n(CCc3ccccc3)c2=O)cc1` [Cpd 4], the inhibition at 10 µM is 71% and the IC50 was found to be 2500 nM.

`CCCCn1c(=O)nc(NCCNC(=N)N)n(Cc2ccc(OC)cc2)c1=O` [Cpd 5]: the inhibition at 10 µM is 67% and the IC50 came out at 2180 nM.

Consider `COc1ccc(Cn2c(NCCNC(=N)N)nc(=O)n(Cc3ccco3)c2=O)cc1` [Cpd 6], for which the inhibition at 10 µM stood at 59% and the IC50 came to 2590 nM.

For `N=C(N)NCCNc1nc(=O)n(Cc2ccccc2)c(=O)n1Cc1cccc(C(F)(F)F)c1` [Cpd 7], the inhibition at 10 µM stood at 52% and the IC50 was above 10000 nM.

As to `CC(C)(C)c1ccc(Cn2c(NCCNC(=N)N)nc(=O)n(Cc3ccccc3)c2=O)cc1` [Cpd 8], the inhibition at 10 µM is 64% and the IC50 stood at 3850 nM.

Consider `N=C(N)NCCNc1nc(=O)n(Cc2ccccc2)c(=O)n1Cc1ccc([N+](=O)[O-])cc1` [Cpd 9], for which the IC50 is above 10000 nM and the “Ca^2+ Mobilization % Inh @10 μM” value turned out to be 35%.

For the compound `COc1ccc(Cn2c(NCCONC(=N)N)nc(=O)n(Cc3ccccc3)c2=O)cc1` [Cpd 10], the IC50 was above 10000 nM and the “Ca^2+ Mobilization % Inh @10 μM” value stood at 33%.

`N=C(N)NCCNc1nc(=O)n(Cc2ccccc2)c(=O)n1Cc1ccncc1` [Cpd 11]: the inhibition at 10 µM turned out to be 32% and the IC50 is above 10000 nM.

For `CCOc1ccc(Cn2c(NCCNC(=N)N)nc(=O)n(Cc3ccccc3)c2=O)cc1` [Cpd 12], the inhibition at 10 µM is 97%; the concentration for half-maximal inhibition (IC50) is 34 nM and 82 nM and 247 nM. Also, the “Ca^2+ Mobilization % Inh @10 μM” value (10 µM) was 96% and 94% and 90%.

Consider `N=C(N)NCCNc1nc(=O)n(Cc2ccccc2)c(=O)n1Cc1ccc(OC(F)F)cc1` [Cpd 13], for which the inhibition at 10 µM came to 92%; the IC50 is 104 nM and 256 nM. Further, the “Ca^2+ Mobilization % Inh @10 μM” value (10 µM) is 91%.

Turning to `N=C(N)NCCNc1nc(=O)n(Cc2ccccc2)c(=O)n1Cc1ccc(C(F)(F)F)cc1` [Cpd 15], the inhibition at 10 µM was 55% and the IC50 worked out at 6110 nM.

`COc1ccc(Cn2c(NCCNC(=N)N)nc(=O)n(Cc3ccccc3F)c2=O)cc1` [Cpd 16]: the inhibition at 10 µM turned out to be 77% and the half-inhibitory concentration (IC50) was 836 nM.

For `COc1ccc(Cn2c(NCCNC(=N)N)nc(=O)n(Cc3ccc(F)cc3)c2=O)cc1` [Cpd 17, N-{2-[5-(4-Fluoro-benzyl)-1-(4-methoxy-benzyl)-4,6-dioxo-1,4,5,6-tetrahydro-[1,3,5]triazin-2-ylamino]-ethyl}-guanidine], the inhibition at 10 µM stood at 100%; the IC50 was 14 nM and 33 nM and 87 nM. Also, the “Ca^2+ Mobilization % Inh @10 μM” value (10 µM) was 99% and 97%.

With `COc1ccc(Cn2c(NCCNC(=N)N)nc(=O)n(Cc3ccc(Cl)c(Cl)c3)c2=O)cc1` [Cpd 18], the inhibition at 10 µM was 98%; the IC50 was 7 nM and 28 nM and 41 nM and 22 nM and 54 nM. Also, the “Ca^2+ Mobilization % Inh @10 μM” value (10 µM) was 100% and 101% and 99%.

For `N=C(N)NCCNc1nc(=O)n(Cc2ccccc2)c(=O)n1Cc1ccc(OC(F)(F)F)cc1` [Cpd 19], the inhibition at 10 µM came out at 81% and the IC50 was 862 nM.

Regarding `COc1ccc(Cn2c(NCCNC(=N)N)nc(=O)n(Cc3cccc(OC)c3)c2=O)cc1` [Cpd 20], the inhibition at 10 µM was 61% and the IC50 was determined as 3690 nM.

In the case of `COc1ccc(Cn2c(NCCNC(=N)N)nc(=O)n(Cc3ccccc3OC)c2=O)cc1` [Cpd 21], the inhibition at 10 µM turned out to be 43% and the IC50 was above 10000 nM.

Consider `N=C(N)NCCNc1nc(=O)n(Cc2ccccc2)c(=O)n1Cc1ccc(C(N)=O)cc1` [Cpd 22], for which the inhibition at 10 µM stood at 80% and the IC50 was 947 nM.

For `CC(=O)Nc1ccc(Cn2c(NCCNC(=N)N)nc(=O)n(Cc3ccccc3)c2=O)cc1` [Cpd 23], the inhibition at 10 µM was found to be 74% and the IC50 was determined as 1250 nM.

Regarding `CCOc1ccc(Cn2c(NCCNC(=N)N)nc(=O)n(Cc3ccc(F)cc3)c2=O)cc1` [Cpd 24], the inhibition at 10 µM amounted to 99% and the 50% inhibitory concentration (IC50) amounted to 41 nM.

`COc1ccc(Cn2c(NCCNC(=N)NC#N)nc(=O)n(Cc3ccc(Cl)c(Cl)c3)c2=O)cc1` [Cpd 28, N-{2-[5-(3,4-Dichloro-benzyl)-1-(4-methoxy-benzyl)-4,6-dioxo-1,4,5,6-tetrahydro-[1,3,5]triazin-2-ylamino]-ethyl}-N′-cyano-guanidine]: the inhibition at 10 µM was determined as 101% and the IC50 came to 710 nM.

For `CCOc1ccc(Cn2c(NCCNC(=N)N)nc(=O)n(Cc3ccc(Cl)c(Cl)c3)c2=O)cc1` [Cpd 29], the inhibition at 10 µM came out at 101%; the IC50 is 42 nM and 47 nM. Further, where the note is “10 µM”, the “Ca^2+ Mobilization % Inh @10 μM” value turned out to be 102%.

Turning to `COc1ccc(Cn2c(NCCNC(=N)N)nc(=O)n(Cc3ccc(Cl)cc3)c2=O)cc1` [Cpd 30], the inhibition at 10 µM stood at 101%; the IC50 is 9 nM and 19 nM. Further, the “Ca^2+ Mobilization % Inh @10 μM” value (10 µM) is given as 103%.

As for `COc1ccc(Cn2c(NCCNC(=N)N)nc(=O)n(Cc3ccc(OC)cc3)c2=O)cc1` [Cpd 31], the inhibition at 10 µM stood at 101%; the IC50 is 9 nM and 21 nM. For the same compound, for the setting “10 µM”, the “Ca^2+ Mobilization % Inh @10 μM” value was found to be 102%.

For the compound `COc1ccc(Cn2c(NCCCCNC(=N)N)nc(=O)n(Cc3ccc(Cl)c(Cl)c3)c2=O)cc1` [Cpd 32], the inhibition at 10 µM stood at 88%; the IC50 is 601 nM and 781 nM. The “Ca^2+ Mobilization % Inh @10 μM” value (10 µM) is on record as 86%.

As to `COc1ccc(CCn2c(NCCNC(=N)N)nc(=O)n(Cc3ccc(F)cc3)c2=O)cc1` [Cpd 33], the inhibition at 10 µM worked out at 66% and the IC50 was found to be 2860 nM.

Take `N=C(N)NCCNc1nc(=O)n(Cc2ccc(Cl)c(Cl)c2)c(=O)n1Cc1ccc(OC2CCCC2)cc1` [Cpd 36]: the inhibition at 10 µM amounted to 77% and the IC50 is 1320 nM.

Turning to `CSc1ccc(Cn2c(NCCNC(=N)N)nc(=O)n(Cc3ccc(Cl)c(Cl)c3)c2=O)cc1` [Cpd 37], the inhibition at 10 µM stood at 98%; the IC50 was 38 nM and 201 nM and 326 nM. The “Ca^2+ Mobilization % Inh @10 μM” value (10 µM) was 100% and 98% and 99%.

Take `CCc1ccc(Cn2c(NCCNC(=N)N)nc(=O)n(Cc3ccc(Cl)c(Cl)c3)c2=O)cc1` [Cpd 38]: the inhibition at 10 µM worked out at 98%; the IC50 was 55 nM and 178 nM and 194 nM. Also, under “10 µM”, the “Ca^2+ Mobilization % Inh @10 μM” value is 94% and 98%.

In the case of `COc1ccc(Cn2c(NCCNC(=N)N)nc(=O)n(Cc3cccc(Cl)c3)c2=O)cc1` [Cpd 39], the inhibition at 10 µM amounted to 81% and the IC50 turned out to be 909 nM.

`N=C(N)NCCNc1nc(=O)n(Cc2ccc(Cl)c(Cl)c2)c(=O)n1Cc1ccc(OC(F)(F)F)cc1` [Cpd 40]: the inhibition at 10 µM turned out to be 98% and the IC50 came to 248 nM.

Turning to `N=C(N)NCCNc1nc(=O)n(Cc2ccc(Cl)c(Cl)c2)c(=O)n1Cc1ccc(OC(F)F)cc1` [Cpd 41], the inhibition at 10 µM came to 101%; the IC50 was 27 nM and 47 nM and 64 nM. The “Ca^2+ Mobilization % Inh @10 μM” value (10 µM) is 100% and 99%.

For the compound `COc1ccc(Cn2c(N[C@H]3CCCC[C@@H]3NC(=N)N)nc(=O)n(Cc3ccc(Cl)c(Cl)c3)c2=O)cc1` [Cpd 43], the inhibition at 10 µM worked out at 31% and the IC50 was above 10000 nM.

In the case of `COc1ccc(Cn2c(NCCNC(=N)N)nc(=O)n(Cc3ccc(SC)cc3)c2=O)cc1` [Cpd 45], the inhibition at 10 µM came to 103% and the IC50 stood at 18 nM.

`CCc1ccc(Cn2c(=O)nc(NCCNC(=N)N)n(Cc3ccc(OC)cc3)c2=O)cc1` [Cpd 46, N-{2-[5-(4-Ethyl-benzyl)-1-(4-methoxy-benzyl)-4,6-dioxo-1,4,5,6-tetrahydro-[1,3,5]triazin-2-ylamino]-ethyl}-guanidine]: the inhibition at 10 µM was found to be 101% and the IC50 worked out at 58 nM.

`COc1ccc(Cn2c(NCCNC3=NCC(=O)N3)nc(=O)n(Cc3ccc(Cl)c(Cl)c3)c2=O)cc1` [Cpd 48, 3-(3,4-Dichloro-benzyl)-1-(4-methoxy-benzyl)-6-[2-(5-oxo-4,5-dihydro-1H-imidazol-2-ylamino)-ethylamino]-1H-[1,3,5]triazine-2,4-dione]: the inhibition at 10 µM amounted to 94% and the IC50 was determined as 798 nM.
